Data reported in ChEMBL document CHEMBL1909046, “DrugMatrix in vitro pharmacology data”.

Legend:
[1] = target: T1, Alpha-2C adrenergic receptor (Homo sapiens, UniProt P18825); assay: DRUGMATRIX: Adrenergic Alpha-2C radioligand binding (ligand: [3H] MK-912); assay type: cell membranes, Sf9, Membrane; settings: sf9
T1 sequence (P18825 whole entry): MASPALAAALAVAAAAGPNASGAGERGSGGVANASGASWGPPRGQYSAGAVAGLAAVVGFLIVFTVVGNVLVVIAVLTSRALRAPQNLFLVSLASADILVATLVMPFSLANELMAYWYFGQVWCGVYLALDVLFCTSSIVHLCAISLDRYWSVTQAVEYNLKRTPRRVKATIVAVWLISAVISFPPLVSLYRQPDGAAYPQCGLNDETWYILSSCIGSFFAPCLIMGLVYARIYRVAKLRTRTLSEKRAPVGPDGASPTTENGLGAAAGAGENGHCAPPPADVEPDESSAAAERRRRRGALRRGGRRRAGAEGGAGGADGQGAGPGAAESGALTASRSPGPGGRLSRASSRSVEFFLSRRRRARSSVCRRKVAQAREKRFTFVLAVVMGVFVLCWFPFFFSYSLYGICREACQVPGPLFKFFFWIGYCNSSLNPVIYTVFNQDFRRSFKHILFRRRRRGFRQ

[2] = DRUGMATRIX: ATPase, Na+/K+ enzyme inhibition (substrate: ATP); assay type: tissue-based, Sus scrofa, Heart; settings: Not Active = under 50% inhibition at 10 µM
[3] = DRUGMATRIX: Glutamate, NMDA, Phencyclidine radioligand binding (ligand: [3H] TCP); assay type: cell membranes, Rattus norvegicus, Wistar, Cerebral cortex, Membrane; settings: Not Active = under 50% inhibition at 10 µM
[4] = DRUGMATRIX: Phosphodiesterase PDE3 enzyme inhibition (substrate: [3H]cAMP + cAMP); assay type: tissue-based, Homo sapiens; settings: platelet; Not Active = under 50% inhibition at 10 µM
[5] = target: T2, Angiotensin-converting enzyme (Oryctolagus cuniculus, UniProt P12822); assay type: tissue-based, Lung;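 further: enzymatic inhibition of angiotensin-converting enzyme measured with FAPGG as the substrate; in other assays of this panel Not Active means under 50% inhibition at 10 µM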
T2 sequence (P12822 whole entry): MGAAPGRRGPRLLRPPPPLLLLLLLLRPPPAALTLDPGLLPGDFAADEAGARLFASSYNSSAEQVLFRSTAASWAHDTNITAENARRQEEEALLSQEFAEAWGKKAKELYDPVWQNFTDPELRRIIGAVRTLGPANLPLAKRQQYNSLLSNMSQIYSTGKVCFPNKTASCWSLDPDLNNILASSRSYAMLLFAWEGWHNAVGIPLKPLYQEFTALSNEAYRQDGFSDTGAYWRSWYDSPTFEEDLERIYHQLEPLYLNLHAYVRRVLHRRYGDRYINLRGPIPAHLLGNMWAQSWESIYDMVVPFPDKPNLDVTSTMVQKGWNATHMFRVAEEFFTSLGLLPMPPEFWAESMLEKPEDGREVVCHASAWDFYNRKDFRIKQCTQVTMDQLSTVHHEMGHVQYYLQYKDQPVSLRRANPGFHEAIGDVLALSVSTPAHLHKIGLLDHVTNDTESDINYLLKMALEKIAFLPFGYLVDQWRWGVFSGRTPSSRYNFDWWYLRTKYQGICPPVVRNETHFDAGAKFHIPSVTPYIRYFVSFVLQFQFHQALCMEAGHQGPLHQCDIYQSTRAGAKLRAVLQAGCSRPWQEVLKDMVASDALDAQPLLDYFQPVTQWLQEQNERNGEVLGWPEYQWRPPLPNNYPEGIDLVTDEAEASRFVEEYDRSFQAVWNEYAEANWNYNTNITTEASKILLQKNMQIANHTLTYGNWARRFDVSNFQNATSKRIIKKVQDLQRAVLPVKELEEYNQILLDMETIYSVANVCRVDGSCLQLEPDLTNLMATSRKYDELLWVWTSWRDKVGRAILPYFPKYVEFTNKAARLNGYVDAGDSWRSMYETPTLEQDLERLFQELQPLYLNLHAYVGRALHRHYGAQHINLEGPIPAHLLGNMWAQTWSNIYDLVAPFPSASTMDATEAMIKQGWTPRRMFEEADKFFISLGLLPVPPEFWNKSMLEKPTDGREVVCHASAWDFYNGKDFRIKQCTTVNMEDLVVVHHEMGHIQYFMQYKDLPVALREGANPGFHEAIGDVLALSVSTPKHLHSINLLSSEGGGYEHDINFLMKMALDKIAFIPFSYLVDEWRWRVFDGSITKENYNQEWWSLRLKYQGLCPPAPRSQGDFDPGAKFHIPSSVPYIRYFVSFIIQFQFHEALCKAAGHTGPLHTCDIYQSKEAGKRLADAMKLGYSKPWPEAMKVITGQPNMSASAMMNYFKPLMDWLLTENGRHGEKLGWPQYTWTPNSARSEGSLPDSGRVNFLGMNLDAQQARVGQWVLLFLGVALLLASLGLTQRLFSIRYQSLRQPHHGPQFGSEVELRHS

[6] = target: Receptor tyrosine-protein kinase erbB-2 (Homo sapiens, UniProt P04626); assay: biochemical; assay type: cell-based, Insect cells;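 further: inhibition of HER2 kinase enzyme activity, measured with Poly(Glu:Tyr) as the phosphorylation substrate; in other assays of this panel Not Active means under 50% inhibition at 10 µM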
Sequence of Receptor tyrosine-protein kinase erbB-2 (P04626 whole entry): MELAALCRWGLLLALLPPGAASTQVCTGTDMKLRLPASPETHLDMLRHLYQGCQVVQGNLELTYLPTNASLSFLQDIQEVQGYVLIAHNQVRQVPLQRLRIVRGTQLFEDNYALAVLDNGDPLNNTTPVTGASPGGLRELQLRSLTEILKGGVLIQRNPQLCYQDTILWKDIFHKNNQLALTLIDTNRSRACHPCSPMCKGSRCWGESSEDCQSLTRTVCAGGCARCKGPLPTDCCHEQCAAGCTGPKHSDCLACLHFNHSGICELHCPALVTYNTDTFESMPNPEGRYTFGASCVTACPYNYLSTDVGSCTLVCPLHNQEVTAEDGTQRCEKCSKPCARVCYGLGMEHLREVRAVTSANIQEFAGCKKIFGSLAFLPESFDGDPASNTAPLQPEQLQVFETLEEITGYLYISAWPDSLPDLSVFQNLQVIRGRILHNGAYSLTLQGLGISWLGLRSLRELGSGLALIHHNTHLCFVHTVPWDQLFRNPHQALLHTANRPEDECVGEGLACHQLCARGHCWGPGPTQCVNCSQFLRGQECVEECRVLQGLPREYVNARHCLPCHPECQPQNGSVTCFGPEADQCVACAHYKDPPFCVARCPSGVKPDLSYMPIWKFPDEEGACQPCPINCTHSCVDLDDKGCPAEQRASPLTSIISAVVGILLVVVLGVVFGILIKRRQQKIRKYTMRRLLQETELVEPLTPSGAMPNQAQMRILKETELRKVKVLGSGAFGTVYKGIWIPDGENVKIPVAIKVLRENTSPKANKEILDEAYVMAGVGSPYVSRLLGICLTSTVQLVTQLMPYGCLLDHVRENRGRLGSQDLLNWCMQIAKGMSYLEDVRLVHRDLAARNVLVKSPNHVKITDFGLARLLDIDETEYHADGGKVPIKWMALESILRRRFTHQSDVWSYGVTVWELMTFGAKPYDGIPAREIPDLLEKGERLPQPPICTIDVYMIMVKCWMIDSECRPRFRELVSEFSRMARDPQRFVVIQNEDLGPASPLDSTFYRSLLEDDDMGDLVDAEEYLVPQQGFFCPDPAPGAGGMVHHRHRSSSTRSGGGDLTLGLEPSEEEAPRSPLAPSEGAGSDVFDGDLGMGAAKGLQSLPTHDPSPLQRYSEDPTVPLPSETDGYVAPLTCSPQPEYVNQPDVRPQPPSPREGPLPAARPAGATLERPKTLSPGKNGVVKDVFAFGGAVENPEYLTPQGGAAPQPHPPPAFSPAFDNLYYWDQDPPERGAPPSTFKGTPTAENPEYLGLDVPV

Cytochrome P450 2A6 = target: T3, Cytochrome P450 2A6 (Homo sapiens, UniProt P11509); settings: bti-tn-5b1-4; further: in other assays of this panel Not Active means under 50% inhibition at 10 µM
T3 sequence (P11509 whole entry): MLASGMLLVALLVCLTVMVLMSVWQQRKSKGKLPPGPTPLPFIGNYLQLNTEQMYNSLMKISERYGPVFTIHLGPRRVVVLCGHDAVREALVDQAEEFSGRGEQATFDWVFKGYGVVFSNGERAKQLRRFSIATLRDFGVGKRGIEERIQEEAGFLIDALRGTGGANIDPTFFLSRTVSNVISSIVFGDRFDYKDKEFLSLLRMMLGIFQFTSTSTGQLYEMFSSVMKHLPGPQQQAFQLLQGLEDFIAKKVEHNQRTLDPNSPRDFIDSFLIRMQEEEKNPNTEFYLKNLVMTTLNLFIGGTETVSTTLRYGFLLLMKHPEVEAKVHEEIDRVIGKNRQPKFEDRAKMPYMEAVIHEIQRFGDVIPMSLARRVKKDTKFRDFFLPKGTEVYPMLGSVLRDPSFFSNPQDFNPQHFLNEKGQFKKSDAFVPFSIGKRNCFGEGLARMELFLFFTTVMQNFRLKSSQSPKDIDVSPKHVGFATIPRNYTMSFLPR

| SMILES | IC50 [1] | IC50 [2] | Ki [2] | IC50 [3] | Ki [3] | IC50 [4] | Ki [4] | IC50 [5] | IC50 ([6]; insect cells) | IC50 (Cytochrome P450 2A6) | Ki (Cytochrome P450 2A6) | IC50 ([6]; read-out: IC50) |
| --- | --- | --- | --- | --- | --- | --- | --- | --- | --- | --- | --- | --- |
| CCCCC1C(=O)N(c2ccccc2)N(c2ccccc2)C1=O [PHENYLBUTAZONE] | Not Active | Not Active | Not Active | Not Active | Not Active | Not Active | Not Active | Not Active | Not Active | Not Active | Not Active |  |
| [N-]=[N+]=CC(=O)OC[C@H](N)C(=O)O [AZASERINE] | Not Active | Not Active | Not Active | Not Active | Not Active | Not Active | Not Active | Not Active | Not Active | Not Active | Not Active |  |
| O=C(/C=C/c1ccc(O)c(O)c1)OCCc1ccccc1 [CAFFEIC ACID PHENETHYL ESTER] | Not Active | Not Active | Not Active | Not Active | Not Active | Not Active | Not Active | Not Active |  | Not Active | Not Active | 1330 nM |
| CCOC(=O)C1=C(C)NC(C)=C(C(=O)OC)C1c1cccc(Cl)c1Cl (stereo not drawn) [FELODIPINE] | Not Active | Not Active | Not Active | Not Active | Not Active | Not Active | Not Active | Not Active | Not Active | Not Active | Not Active |  |
| OCCO [ETHYLENE GLYCOL] | Not Active | Not Active | Not Active | Not Active | Not Active | Not Active | Not Active | Not Active | Not Active | Not Active | Not Active |  |
| C[C@H]([C@](O)(Cn1cncn1)c1ccc(F)cc1F)S(C)(=O)=O [GENACONAZOLE] | Not Active | Not Active | Not Active | Not Active | Not Active | Not Active | Not Active | Not Active | Not Active | Not Active | Not Active |  |
| Nc1nc(N)nc(NC2CC2)n1 [CYROMAZINE] | Not Active | Not Active | Not Active | Not Active | Not Active | Not Active | Not Active | Not Active | Not Active | Not Active | Not Active |  |
| CC[C@H](C)C(=O)O[C@H]1C[C@H](O)C=C2C=C[C@H](C)[C@H](CC[C@@H](O)C[C@@H](O)CC(=O)O)[C@H]21 [PRAVASTATIN] | Not Active | Not Active | Not Active | Not Active | Not Active | Not Active | Not Active | Not Active | Not Active | Not Active | Not Active |  |
